Values of other authors as cited in patent publication US8426587B2, “Haloallylamine inhibitors of SSAO/VAP-1 and uses therefor” (Pharmaxis Ltd., priority 2007, dated 2013).

Biological target: T1, rat SSAO/VAP-1 (Rattus norvegicus, UniProt O08590)
T1 sequence (O08590 1-763): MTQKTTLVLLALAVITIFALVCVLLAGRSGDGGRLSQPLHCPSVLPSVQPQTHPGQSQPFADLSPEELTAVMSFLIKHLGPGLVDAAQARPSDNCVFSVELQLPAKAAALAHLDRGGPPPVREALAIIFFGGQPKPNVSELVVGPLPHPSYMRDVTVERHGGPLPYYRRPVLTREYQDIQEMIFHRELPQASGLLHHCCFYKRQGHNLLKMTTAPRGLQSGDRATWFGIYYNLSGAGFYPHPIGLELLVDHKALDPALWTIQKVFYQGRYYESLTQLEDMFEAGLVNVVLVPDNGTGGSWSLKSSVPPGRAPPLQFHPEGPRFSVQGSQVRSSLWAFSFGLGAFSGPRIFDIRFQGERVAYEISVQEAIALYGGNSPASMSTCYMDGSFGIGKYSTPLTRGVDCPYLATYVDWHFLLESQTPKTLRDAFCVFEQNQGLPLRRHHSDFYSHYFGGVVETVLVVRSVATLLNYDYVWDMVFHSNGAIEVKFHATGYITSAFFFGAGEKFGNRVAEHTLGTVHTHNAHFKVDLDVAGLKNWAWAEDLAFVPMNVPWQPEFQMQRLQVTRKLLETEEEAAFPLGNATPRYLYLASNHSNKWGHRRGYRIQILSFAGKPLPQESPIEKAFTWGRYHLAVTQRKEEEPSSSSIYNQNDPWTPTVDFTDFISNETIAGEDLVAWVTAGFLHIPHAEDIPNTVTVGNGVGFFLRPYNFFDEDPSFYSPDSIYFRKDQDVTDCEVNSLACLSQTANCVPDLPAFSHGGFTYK
Conditions: reports in the literature; cited from earlier work

SMILES: NC/C(=C/Cl)c1ccccc1 [MDL72274]
- Selectivity for rat SSAO/VAP-1 compared to MAO-A and MAO-B: selectively inhibiting rat SSAO/VAP-1
